This assay concerns the target Serine/threonine-protein kinase D1 (Homo sapiens) (UniProt Q15139). The assay is described as follows: inhibitors of human PKD1 kinase, confirmation, biochemical, fluorescence polarization, 140K library hits, repeat (AID 1286). As to conditions: at 10 µM, hits give high values.

SMILES strings stand for the structures. Inconclusive results are not listed. The source made the active and inactive calls. The rule behind the calls is not given here.

Chain of Serine/threonine-protein kinase D1 (Homo sapiens) (Q15139 whole entry, looked up): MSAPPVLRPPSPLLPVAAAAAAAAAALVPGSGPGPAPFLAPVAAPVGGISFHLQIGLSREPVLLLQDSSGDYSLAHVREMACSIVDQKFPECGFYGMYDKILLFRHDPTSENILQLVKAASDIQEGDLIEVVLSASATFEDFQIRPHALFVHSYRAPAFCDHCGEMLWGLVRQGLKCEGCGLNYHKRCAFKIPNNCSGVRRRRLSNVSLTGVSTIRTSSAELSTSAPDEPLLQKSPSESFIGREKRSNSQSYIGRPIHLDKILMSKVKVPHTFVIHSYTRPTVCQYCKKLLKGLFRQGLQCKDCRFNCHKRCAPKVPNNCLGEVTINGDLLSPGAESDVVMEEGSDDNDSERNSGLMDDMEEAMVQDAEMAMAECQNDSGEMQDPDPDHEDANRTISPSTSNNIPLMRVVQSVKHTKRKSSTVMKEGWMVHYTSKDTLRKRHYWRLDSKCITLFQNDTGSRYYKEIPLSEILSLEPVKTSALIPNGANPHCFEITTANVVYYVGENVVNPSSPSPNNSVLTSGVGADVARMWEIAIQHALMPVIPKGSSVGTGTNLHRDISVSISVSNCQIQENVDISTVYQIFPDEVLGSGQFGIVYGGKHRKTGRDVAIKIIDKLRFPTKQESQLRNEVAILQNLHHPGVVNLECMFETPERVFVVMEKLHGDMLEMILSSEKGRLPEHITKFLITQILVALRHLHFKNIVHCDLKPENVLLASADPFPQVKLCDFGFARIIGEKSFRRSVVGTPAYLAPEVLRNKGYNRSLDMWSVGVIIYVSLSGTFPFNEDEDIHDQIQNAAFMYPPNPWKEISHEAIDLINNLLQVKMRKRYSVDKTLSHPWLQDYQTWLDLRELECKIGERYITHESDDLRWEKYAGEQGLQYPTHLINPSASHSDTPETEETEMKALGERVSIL

A word on the inhibition: it is the drop in the measured response relative to a control, in per cent. Regarding `CS(=O)(=O)N1CCN(c2ccc(NC(=O)c3ccc(Br)o3)cc2)CC1`, the inhibition is -7.85% (inactive). As for `CCCNC(=O)CN(c1ccc(F)cc1)S(=O)(=O)c1ccc2c(c1)OCCO2`, the figure is -8.66% (inactive); as for `Nc1nc2ccccc2n1/N=C/c1cccnc1`, 36.4% (inactive). In the case of `COC(=O)c1ccccc1OCC(=O)NC1CCCCC1` it was -3.26% (inactive); in that of `COc1ccccc1C(=O)NN1C(=O)C2C3C=CC(O3)C2C1=O` (stereo unspecified), -0.477% (inactive); in that of `CC(=O)Nc1ccc2c(c1)c1ccccc1n2C(C)=O`, 14.5% (inactive). `CN(C)CCOc1ccc2c(c1)Sc1ccccc1CC2=O`: the inhibition was 8.37% (inactive). In the case of `COc1ccccc1/C=C1\SC(=S)N(CCC(=O)NC2=NCCS2)C1=O` it was -0.701% (inactive); in that of `O=C(O)C1CCN(c2ncccn2)CC1`, -5.12% (inactive). Take `O=C(CN1CCCC1)Nc1c2c(nc3ccccc13)N(Cc1ccccc1)CC2`: the inhibition is -4.44% (inactive). In the case of `Cn1c(OCc2cccnc2)nc2c1c(=O)n(Cc1ccc(Br)cc1)c(=O)n2C` it was -0.468% (inactive). On to `O=C(Nc1ccccc1)ON=C1c2ccccc2-c2ccccc21`, for which the inhibition is 17.2% (inactive). In the case of `Clc1cncc(Cl)c1N/N=C/c1ccncc1` it was 77.4%; in that of `C=CCn1c(SC(C)C(=O)NCc2ccc3c(c2)OCO3)nnc1C1CCCCC1` (stereo unspecified), -1.58% (inactive); in that of `NC(N)=NC(=O)c1nc(Cl)c(N)nc1N`, 58.6%. As for `O=C(Nc1ccsc1C(=O)NC1CC1)c1ccccc1`, the figure is 9.43% (inactive); as for `Cc1[nH]nc2c1-c1nc3ccccc3nc1C(C)(C)C2`, 40% (inactive); as for `COc1ccc(Nc2cc(C)nc(-n3nc(C)cc3C)n2)cc1`, 3.67% (inactive).

Regarding `Cn1c(=O)oc2cc(S(=O)(=O)N3CCN(Cc4ccc5c(c4)OCO5)CC3)ccc21`, the inhibition was -1.91% (inactive). In the case of `Cc1occc1C(=O)NC(C)CCc1ccccc1` (stereo unspecified) it was -0.529% (inactive); in that of `CN(C)c1ccc(/C=C2\SC(=S)N(Nc3ncc(C(F)(F)F)cc3Cl)C2=O)cc1`, 4.05% (inactive); in that of `CCOC(=O)c1[nH]c2cc(OC)c(OC)cc2c1NC(=O)CN1CCN(C)CC1`, 3.12% (inactive). In the case of `CC1CCCC(C)N1C(=O)Cn1cc(/C=C2/C(=O)Nc3ccccc32)c2ccccc21` (stereo unspecified) it was 2.88% (inactive); in that of `Cc1cc2nc3c(=O)n(C4CCCCC4)c(=O)[nH]c3nc2cc1N`, 21.6% (inactive); in that of `O=C1c2ccccc2-c2onc3ccc(NCc4ccco4)c1c23`, 32.1% (inactive). As for `NC(=NCCc1c[nH]c2ccccc12)NS(=O)(=O)c1cc(F)ccc1F`, the figure is 2.31% (inactive). As for `Cc1c(N/N=C(\C#N)C(=O)c2ccccc2)c(=O)n(-c2ccccc2)n1C`, the inhibition is 12.8% (inactive). Consider `O=C(Nc1ccccc1Cl)ON=C1c2ccccc2-c2ccccc21`, for which the inhibition was 14.4% (inactive).

Take `CCC(=O)Nc1c2c(nn1-c1ccccc1C)CSC2`: the inhibition was 58.1%. As for `O=C1CCCc2c1cc(C(=O)NCc1ccco1)c(=O)n2-c1ccccc1`, the figure is -5.46% (inactive). In the case of `CS(=O)(=O)N1CCN(c2ccccc2NC(=O)c2ccc(Br)o2)CC1` it was 96.2%; in that of `Cc1cc(N=CC2=C(O)CC(C)(C)CC2=O)no1`, -1.85% (inactive). In the case of `Cc1c(C(=O)NCc2cccnc2)sc2nc(-c3ccc(F)cc3)cn12` it was -3.04% (inactive). On to `O=C(Nc1ccc(Cl)cc1)OCc1cn(-c2ccc(Cl)cc2)nn1`, for which the inhibition is -2.52% (inactive). As for `Nc1nnc(SCCCC(=O)c2ccc(F)cc2)s1`, the figure is 26.1% (inactive); as for `CCOC(=O)N1CCC(NS(=O)(=O)c2cc(Br)cc3c2N(C(=O)CC)CC3)CC1`, -5.57% (inactive); as for `CCOc1cccc(C2C(C(=O)c3ccc(C)o3)=C(O)C(=O)N2c2nccs2)c1` (stereo unspecified), 73.4%. In the case of `COc1ccc2nc3sc(C(=O)NCCCN4CCc5ccccc5C4)cc3cc2c1` it was 7.3% (inactive); in that of `O=C(Nc1cccc([N+](=O)[O-])c1)C12CC3CC(C1)CC(n1cnc([N+](=O)[O-])n1)(C3)C2`, -4.73% (inactive). In the case of `O=C1CC(N2CCN(c3ccccc3Cl)CC2)C(=O)N1c1cccc(F)c1` (stereo unspecified), the inhibition was -6.73% (inactive). As for `COc1cc(C2=NOC(C(=O)NCc3ccco3)C2)cc(OC)c1OC` (stereo unspecified), the figure is -3.78% (inactive); as for `O=C(c1cc(-c2ccccc2)nc2ccccc12)N1CCN(c2ccccn2)CC1`, 0.468% (inactive); as for `CCN(CC)c1ccc(NC(=O)COc2ccccc2C#N)cc1S(=O)(=O)Nc1ccc(OC)cc1`, -2.22% (inactive). Consider `Cc1ccc(NC(=O)C2CCCN(S(=O)(=O)c3c(C)noc3C)C2)c(C)c1` (stereo unspecified), for which the inhibition is -2.05% (inactive). As for `Cc1cc(NCCCN)nc(-c2ccccc2O)n1`, the inhibition is 59.5%. In the case of `Cn1c(=O)[nH]c(=O)c2c1nc(NC1CCCCC1)n2CC(=O)NC1CCCCC1` it was -11.5% (inactive); in that of `Nc1nc2ccc([N+](=O)[O-])c(N)c2s1`, 69.9%. Consider `COc1ccc(C2C(C(=O)c3cccs3)=C(O)C(=O)N2c2nncs2)cc1` (stereo unspecified), for which the inhibition is 35.1% (inactive).

On to `Cc1cc(Nc2cccc(F)c2)nc(NCc2ccccc2)n1`, for which the inhibition is 1.99% (inactive). Turning to `CC(OC(=O)c1ccc(NS(=O)(=O)c2cccs2)cc1)C(=O)N(C)C1CCCCC1` (stereo unspecified), the inhibition is -4.35% (inactive). In the case of `CCn1c(CSc2ncccn2)nnc1SCC(=O)N1CCc2ccccc21` it was -1.28% (inactive). `COc1ccc(-c2cnnc(N/N=C/c3ccc(O)c(O)c3)n2)cc1`: the inhibition was 3.96% (inactive). In the case of `CCC1=NNc2cccc3c(OC)ccc1c23` it was 89.7%. In the case of `CN1CCN(c2ccccc2NC(=O)c2ccc(-c3cccc([N+](=O)[O-])c3)o2)CC1` it was 7.36% (inactive); in that of `O=C(NCCOC(=O)c1ccc(C(=O)OCCNC(=O)c2cccnc2)s1)c1cccnc1`, -5.26% (inactive). In the case of `Cc1c(N/N=C(\C#N)C(=O)c2ccc(Cl)cc2)c(=O)n(-c2ccccc2)n1C` it was 18% (inactive); in that of `O=C(Nc1ccc(CN2CCOCC2)cc1)c1ccc(-c2cccc(Cl)c2)o1`, 52.6%; in that of `CN1CCN(c2cccc3c2C(=O)c2ccccc2C3=O)CC1`, 34.4% (inactive). For the compound `Cc1ccc(NC(=O)CNc2ccc(Cl)cc2F)cc1`, the inhibition is 0.85% (inactive). In the case of `CCOC(=O)c1cccc(NC(=O)CCS(=O)(=O)c2cccc3nsnc23)c1` it was 28.8% (inactive).

As to `COC(=O)c1cccc2c1-c1ccccc1/C2=N/O`, the inhibition was 19.8% (inactive).

With `NC(=O)c1cn(C2OC(CO)C(O)C2O)c2ncnc(N)c12` (stereo unspecified), the inhibition is 90.3%.

In the case of `COc1cc2c(cc1OC)-c1c(OC)c(OC)c(OC)c3ccnc(c13)C2=O`, the inhibition was 10.4% (inactive). As for `COCC(C)n1c(C)cc(C(=O)COC(=O)c2nc3nc(C)cc(C)n3n2)c1C` (stereo unspecified), the figure is -2.8% (inactive); as for `CC(C)CCN1CN(S(=O)(=O)c2cccs2)c2nc3ccccc3nc21`, -0.214% (inactive); as for `CCOC(=O)N1CCN(c2cc(NCCC(=O)O)c3c4c(onc24)-c2ccccc2C3=O)CC1`, 3.06% (inactive). As for `Cc1ccc(C(=O)Cn2c(NCCO)nc3ccccc32)cc1`, the figure is -5.32% (inactive).

`O=C1Nc2ccccc2/C1=C/c1cnc[nH]1`: the inhibition is 28.3% (inactive). As for `Cn1c(=O)c(NCCO)c2c3c(cccc31)C(=O)c1ccccc1-2`, the figure is 95.8%.

In the case of `Clc1ccc(Nc2ccc(-n3ccnc3)nn2)cc1Cl`, the inhibition is -1.8% (inactive). As for `Cc1nn(C)c(C)c1N1C(=O)c2cccc3c(N)ccc(c23)C1=O`, the figure is 46.3% (inactive); as for `CCCCn1c(=O)[nH]c2nc3cc(N)ccc3nc2c1=O`, 31.1% (inactive). On to `Cc1c(C(=O)N/N=C/c2ccc(O)c(Br)c2)sc(N)c1C#N`, for which the inhibition is 44.5% (inactive). In the case of `O=C1CC(N2CCN(c3ccccc3Cl)CC2)C(=O)N1c1ccc(F)cc1` (stereo unspecified) it was -3.22% (inactive); in that of `c1ccc(-c2n[nH]c3ccccc23)cc1`, 11.3% (inactive). As for `Cc1ccc(C(=O)NNC2=Nc3cccc4cccc2c34)cc1`, the figure is 6.45% (inactive); as for `COc1ccc(S(=O)(=O)N2CCC(n3cnc4cc(C(F)(F)F)ccc43)CC2)cc1`, 20.8% (inactive). As to `CC(=O)Oc1cc(OC(C)=O)c2c(C)cc(=O)oc2c1`, the inhibition was 68.1%. Consider `Nc1nc2ccccc2n1/N=C/c1ccc([N+](=O)[O-])s1`, for which the inhibition was 34.7% (inactive). As for `CCOC(=O)N1CCC(N2CCN(S(=O)(=O)CC)CC2)CC1`, the figure is -3.7% (inactive); as for `O=C1NCCCc2c1oc1ccc(O)cc21`, 96.2%.

The values above are taken from PubChem BioAssay AID1286 (University of Pittsburgh Molecular Library Screening Center, 2008).
